Experimental findings from ChEMBL document CHEMBL1201862, “PubChem BioAssay data set” (2004) are described below.

Structures are written as SMILES.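 1) Cells in 96-well plates. 2) Compound, 48 h, 5 concentrations. 3) Linear interpolation between surrounding doses. 4) Unreached endpoint = highest concentration. Abbreviation: GI50, concentration required for 50% inhibition of growth.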 Calls of active or inactive are those of the source. Cut-off read from the data, not from the text of the source: active = GI50 up to about 1.1 µM and inactive = higher.

Some test systems named below: SK-OV-3; SNB-19; A549; Hs-578T; BT-549; MOLT-4; NCI-H522; IGROV-1; SR; NCI/ADR-RES; RPMI-8226; LOX IMVI; K562; HCC 2998; OVCAR-8; SK-MEL-28; COLO 205; SK-MEL-5; A498.
Holding throughout (experiment): inhibition of tumour cell growth, NCI panel, 48 h

As for `Cc1ccc(S(=O)(=O)[N-]C2C(=O)c3ccccc3C(=O)C2[n+]2cccc(C(N)=O)c2)cc1` (configuration not stated), the GI50 in the assay on SK-OV-3, with SNB-19, in the assay on A549, with Hs-578T, in the assay with BT-549 and in the assay with MOLT-4 was > 100 µM (inactive) throughout. Further, the GI50 is > 100 µM (inactive) in the assay with NCI-H522; > 100 µM (inactive) in the assay on IGROV-1; > 100 µM (inactive) in the assay with SR; > 100 µM (inactive) in the assay on NCI/ADR-RES; > 100 µM (inactive) in the assay on RPMI-8226; 30.7 µM (inactive) with LOX IMVI. Further, the GI50 was > 100 µM (inactive) with K562; 38.5 µM (inactive) in the assay with HCC 2998; > 100 µM (inactive) with OVCAR-8; > 100 µM (inactive) in the assay on SK-MEL-28; 24.8 µM (inactive) in the assay with COLO 205; > 100 µM (inactive) with SK-MEL-5.

Regarding `CCOC(=O)C(C(=S)SC)c1nn2c(=O)cc(C)nc2s1` (configuration not stated), the GI50 is 22.9 µM (inactive) with SK-OV-3; 21.3 µM (inactive) with SNB-19; 19.5 µM (inactive) in the assay with A549; 22.1 µM (inactive) in the assay on Hs-578T; 16.9 µM (inactive) with BT-549; 19.2 µM (inactive) with MOLT-4. Also, the GI50 was 21.1 µM (inactive) in the assay with NCI-H522; 19.6 µM (inactive) with IGROV-1; 15.7 µM (inactive) in the assay on SR; 24.3 µM (inactive) with NCI/ADR-RES; 19.6 µM (inactive) in the assay on RPMI-8226; 15.9 µM (inactive) in the assay on LOX IMVI. Besides, the GI50 with K562 is 18.2 µM (inactive); in the assay with HCC 2998, 25.5 µM (inactive); with OVCAR-8, 19.3 µM (inactive); in the assay with SK-MEL-28, 18.8 µM (inactive); in the assay with COLO 205, 24.6 µM (inactive); with SK-MEL-5, 18.7 µM (inactive).

As for `Cc1nn(-c2ccccc2)c2nc3ccc(Cl)cc3c(-c3ccccc3)c12`, the GI50 with SK-OV-3, in the assay on SNB-19, in the assay on A549, in the assay on Hs-578T, in the assay on BT-549 and in the assay on MOLT-4 was > 100 µM (inactive) in each case. Besides, the GI50 in the assay with NCI-H522, in the assay on IGROV-1, with SR, with NCI/ADR-RES, in the assay on RPMI-8226 and in the assay on LOX IMVI was > 100 µM (inactive) each time. The GI50 with HCC 2998, in the assay on OVCAR-8, in the assay on SK-MEL-28, with COLO 205 and with SK-MEL-5 was > 100 µM (inactive) each time.

Consider `CCn1c(-c2cc(OC)cc(OC)c2)nc2c1C(=O)c1ccccc1C2=O`, for which the GI50 is 3.9 µM (inactive) with SK-OV-3; > 100 µM (inactive) with SNB-19; > 100 µM (inactive) in the assay with A549; 36.5 µM (inactive) in the assay on Hs-578T; > 100 µM (inactive) in the assay on BT-549; > 100 µM (inactive) in the assay on MOLT-4. In addition, the GI50 is 6.46 µM (inactive) in the assay with NCI-H522; > 100 µM (inactive) with IGROV-1; > 100 µM (inactive) in the assay on SR; > 100 µM (inactive) in the assay on NCI/ADR-RES; > 100 µM (inactive) with RPMI-8226; > 100 µM (inactive) with K562. For the same compound, the GI50 in the assay on HCC 2998, in the assay on OVCAR-8, with SK-MEL-28, in the assay with COLO 205 and in the assay with SK-MEL-5 was > 100 µM (inactive) each time.

In the case of `COC(=O)c1c(C)cc(OC)c(C/C=C(\C)CCCc2coc(C=C(C)C)c2)c1OC`, the GI50 with SNB-19 is > 100 µM (inactive); in the assay on A549 it was > 100 µM (inactive); with Hs-578T it was 18.2 µM (inactive); in the assay on BT-549 it was > 100 µM (inactive); with MOLT-4 it was 37.4 µM (inactive); in the assay on NCI-H522 it was 14.9 µM (inactive). Moreover, the GI50 with IGROV-1 is > 100 µM (inactive); in the assay with SR, 7.6 µM (inactive); in the assay with NCI/ADR-RES it was > 100 µM (inactive); in the assay on RPMI-8226 it was 99.5 µM (inactive); in the assay on LOX IMVI, > 100 µM (inactive); with K562 it was > 100 µM (inactive). The GI50 in the assay on HCC 2998, with OVCAR-8, in the assay with SK-MEL-28, in the assay on COLO 205 and with SK-MEL-5 was > 100 µM (inactive) in each case.

As to `Cc1nc2ccc(S(=O)(=O)Nc3ccccc3Cl)cc2c(=O)n1NC(=O)CNc1ccccc1Cl`, the GI50 in the assay on SK-OV-3, in the assay with SNB-19, in the assay with A549, with Hs-578T, in the assay on BT-549 and in the assay with MOLT-4 was > 100 µM (inactive) each time. Besides, the GI50 in the assay with NCI-H522, in the assay with IGROV-1, with SR, in the assay with NCI/ADR-RES, in the assay on RPMI-8226 and with LOX IMVI was > 100 µM (inactive) in each case. Further, the GI50 with K562, in the assay with HCC 2998, in the assay with OVCAR-8, with SK-MEL-28 and with COLO 205 was > 100 µM (inactive) each time.

Take `O=C(Cn1c(-c2ccccc2)cc2ccccc21)N1CCCC1`: the GI50 with SK-OV-3, with SNB-19, with A549, in the assay on Hs-578T, with BT-549 and in the assay with MOLT-4 was > 100 µM (inactive) in each case. In addition, the GI50 with NCI-H522, in the assay with IGROV-1, with SR, in the assay with NCI/ADR-RES, in the assay on LOX IMVI and in the assay with OVCAR-8 was > 100 µM (inactive) throughout. In addition, the GI50 in the assay on COLO 205 was > 100 µM (inactive); in the assay with SK-MEL-5 it was 63.2 µM (inactive).

As to `C(=N/Nc1ccccn1)/c1cccnc1`, the GI50 was > 100 µM (inactive) in the assay with SK-OV-3; > 100 µM (inactive) with SNB-19; > 100 µM (inactive) with A549; > 100 µM (inactive) in the assay with Hs-578T; > 100 µM (inactive) in the assay on BT-549; 76.2 µM (inactive) with MOLT-4. Further, the GI50 was > 100 µM (inactive) with NCI-H522; > 100 µM (inactive) in the assay with IGROV-1; > 100 µM (inactive) with NCI/ADR-RES; > 100 µM (inactive) with RPMI-8226; > 100 µM (inactive) in the assay with LOX IMVI; 31 µM (inactive) in the assay on K562. In addition, the GI50 was > 100 µM (inactive) with HCC 2998; > 100 µM (inactive) in the assay with A498; > 100 µM (inactive) in the assay with OVCAR-8; 87.7 µM (inactive) with SK-MEL-28; > 100 µM (inactive) with COLO 205; > 100 µM (inactive) in the assay with SK-MEL-5.

As for `CC(=O)N1c2ccccc2C23CCN4CC5=CCOC(O)C(C5CC42)C13` (configuration not stated), the GI50 with SK-OV-3, in the assay with SNB-19, with A549, with Hs-578T, with BT-549 and in the assay on MOLT-4 was > 100 µM (inactive) each time. The GI50 with NCI-H522 was > 100 µM (inactive); in the assay on IGROV-1 it was > 100 µM (inactive); in the assay with NCI/ADR-RES, > 100 µM (inactive); in the assay with RPMI-8226 it was > 100 µM (inactive); in the assay with LOX IMVI it was > 100 µM (inactive); in the assay on K562 it was 31.9 µM (inactive). Also, the GI50 in the assay with HCC 2998, in the assay with A498, in the assay with OVCAR-8, with SK-MEL-28, in the assay with COLO 205 and in the assay on SK-MEL-5 was > 100 µM (inactive) throughout.

In the case of `c1ccc2c(c1)CCc1c-2n(CCN2CCCCC2)c2ccccc12`, the GI50 with SK-OV-3 is 23.7 µM (inactive); with SNB-19, 26 µM (inactive); in the assay on A549, 18.7 µM (inactive); in the assay with Hs-578T, 18.2 µM (inactive); with BT-549, 17.9 µM (inactive); in the assay on MOLT-4, 13.9 µM (inactive). Also, the GI50 was 13.5 µM (inactive) in the assay with NCI-H522; 11.4 µM (inactive) in the assay on IGROV-1; 8.81 µM (inactive) in the assay with SR; 16.8 µM (inactive) in the assay on NCI/ADR-RES; 10.3 µM (inactive) with RPMI-8226; 15.1 µM (inactive) in the assay with LOX IMVI. Besides, the GI50 in the assay on K562 is 9.75 µM (inactive); in the assay on HCC 2998 it was 13.1 µM (inactive); in the assay on OVCAR-8, 17.7 µM (inactive); in the assay on SK-MEL-28, 19.6 µM (inactive); with COLO 205 it was 11.8 µM (inactive); in the assay on SK-MEL-5 it was 0.564 µM (active).

Regarding `C=C(C)[C@@H]1CC[C@]2(C(=O)O)CC[C@]3(C)[C@H](CCC4[C@@]5(C)CC[C@H](C(=O)/C=C/c6ccc(O)c(O)c6)C(C)(C)[C@@H]5CC[C@]43C)[C@@H]12` (some centres not stated), the GI50 in the assay on SK-OV-3 was 4.42 µM (inactive); in the assay on SNB-19 it was 11.9 µM (inactive); with A549 it was 2.58 µM (inactive); in the assay with Hs-578T, 5.47 µM (inactive); with BT-549, 12 µM (inactive); in the assay on MOLT-4, 2.94 µM (inactive). In addition, the GI50 in the assay with IGROV-1 was 4.24 µM (inactive); in the assay with SR it was 3.4 µM (inactive); with NCI/ADR-RES, 5.46 µM (inactive); with LOX IMVI it was 3.34 µM (inactive); in the assay on K562, 3.85 µM (inactive); in the assay on HCC 2998 it was 1.88 µM (inactive). Further, the GI50 with OVCAR-8 is 4.46 µM (inactive); with COLO 205, 2.84 µM (inactive); in the assay with SK-MEL-5 it was 2.85 µM (inactive).
